Data taken from US12454541B2, “Reagent for measuring oxygen concentration in cell and tissue” (NATIONAL UNIVERSITY CORPORATION GUNMA UNIVERSITY, priority 2019, dated 2025).

Legend:
[1] = tested on: HeLa cells; assay: Phosphorescence imaging and microplate-reader phosphorescence intensity of HeLa cells with added iridium complex; type: cell-based; conditions: for phosphorescence intensity in imaging under oxygen partial pressure of 2.5% (intracellular oxygen responsiveness): HeLa cells, 500 nM, 2 hours culture, 2.5% vs 21% oxygen; for phosphorescence intensity in HeLa cells (comparison between complexes): final concentration 500 nM, 2 hours of culture, imaging and microplate reader
Description: Luminescence micrograph: inverted research microscope, IX-71; manufactured by Olympus Corporation
(§1) Luminescence intensity, luminescence lifetime: microplate reader, Infinite 200 PRO; manufactured by TECAN.
Using the iridium complexes developed, imaging experiments for living cells were carried out. […] For quantitative evaluation, the phosphorescence intensity was measured using a microplate reader (FIG. 4).
For C6-BEDA and C545T-BEDA, intracellular oxygen responsiveness was evaluated. […] Further, as a result of measurement of the phosphorescence intensity using a microplate reader, it was shown that the phosphorescence intensity increases 3-fold or more under an oxygen partial pressure of 2.5% (FIG. 4).

[2] = Photophysical properties of iridium complexes in a solution (absorption, phosphorescence spectrum, quantum yield, lifetime); type: physicochemical; conditions: for maximum absorption wavelength λabs / maximum emission (phosphorescence) wavelength λphos / molecular extinction coefficient ε: in acetonitrile at room temperature; for molecular extinction coefficient ε: at λabs; for phosphorescence lifetime τp / phosphorescence quantum yield Φp: in acetonitrile, under deoxidized conditions
Description: Photophysical properties of the phosphorescence of the compound represented by General Formula (I) or (II), such as the maximum absorption/phosphorescence wavelength, the phosphorescence quantum yield (Φp), and the phosphorescence lifetime (τp), can be measured by known measurement methods. For example, the maximum absorption/phosphorescence wavelength can be measured using a spectrophotometer or the like, and the phosphorescence quantum yield can be measured using a luminescence quantum yield measurement apparatus or the like, for a sample in which the compound represented by General Formula (I) or (II) is dissolved in a solvent or the like. Regarding the phosphorescence lifetime, the […] (τp) of the compound in each solvent can be measured using a phosphorescence lifetime measurement apparatus.
Absorption spectrum: ultraviolet and visible spectrophotometer, Ubest-550; manufactured by JASCO Corporation
Phosphorescence spectrum: multichannel spectroscope, PMA-12; manufactured by Hamamatsu Photonics K. K.
Phosphorescence quantum yield: luminescence quantum yield measurement apparatus, C9920-01; manufactured by Hamamatsu Photonics K. K.
Phosphorescence lifetime: compact fluorescence lifetime measurement apparatus, Quantaurus-Tau; manufactured by Hamamatsu Photonics K.K.
The maximum absorption wavelength (λabs) was found at 473 to 499 nm, and the molecular extinction coefficient (ε/dm^3 mol^−1 cm^−1) was not less than 70,000 dm^3 mol^−1 cm^−1. The maximum emission wavelength (λphos) was found at 577 to 622 nm. […] Therefore, the observed luminescence can be identified as a phosphorescence. […] These are higher quantum yields compared to those of the iridium complexes that have been reported so far.

[3] = tested on: HT-29 cells; assay: Tracing of intracellular oxygen by phosphorescence lifetime of C6-BEDA in HT-29 cells using a plate reader; type: cell-based; conditions: for change of phosphorescence lifetime of C6-BEDA in cells after additive: C6-BEDA 500 nM, plate sealed with oil, excitation 480 nm, measurement 600 nm; for change of phosphorescence lifetime of C6-BEDA in cells after additive / change of intracellular oxygen partial pressure after additive: antimycin A 10 μM or FCCP 1 μM; for change of intracellular oxygen partial pressure after additive: converted from C6-BEDA phosphorescence lifetime with calibration curve
Description: as §1
Using a luminescence lifetime measurement mode of a commercially available plate reader, changes in the oxygen concentration in cells were traced. In a 96-well plate, HT-29 cells were plated at 50,000 cells/well, and cultured for 48 hours. Thereafter, C6-BEDA was added thereto to a final concentration of 500 nM, and culture was carried out for 2 hours. […] After sealing the plate with oil, the phosphorescence lifetime was measured using a plate reader (excitation wavelength, 480 nm; measurement wavelength, 600 nm; FIG. 6). The phosphorescence lifetime (τp/μs) was calculated using the following equation. τp=30/ln(W1/W2)
Here, W1 and W2 are the integrated values of the phosphorescence intensity obtained during the periods of 10 to 30 μs and 40 to 60 μs after the pulse excitation. In the cells to which no additive was added, the phosphorescence lifetime increased with time. […] This is due to the fact that intracellular oxygen consumption was stopped by the respiration inhibitory action of antimycin A, while intracellular oxygen consumption increased by the respiration-promoting action of FCCP. In order to convert the measured phosphorescence lifetime to the oxygen partial pressure, preparation of a calibration curve is necessary. Here, the calibration curve was prepared by measuring the phosphorescence lifetime at different oxygen partial pressures in the plate reader (pO2=1521.03225 exp(−τp/[…])) (FIG. 7).

[4] = tested on: liver of a mouse; assay: Phosphorescence lifetime imaging (PLIM) of liver of mouse after tail vein administration; type: in vivo; conditions: mouse under anesthesia, 250 nmol, excitation 488 nm
Description: Subsequently, the in vivo dynamics was evaluated. In the present experiment, a microscope capable of acquiring a phosphorescence lifetime image as well as a phosphorescence intensity image (PLIM: phosphorescence lifetime imaging microscope) was used. To the tail vein of a mouse under anesthesia, 250 μL of a solution of C6-MEDA or C6-BEDA (physiological saline:DMSO=9:1, v/v, 250 nmol) was administered to carry out a phosphorescence intensity imaging experiment and a phosphorescence lifetime imaging experiment (excitation wavelength, 488 nm; monitoring wavelength, 510 to 560 nm). […] The liver is composed of functional units called hepatic lobules. Arteries and portal veins are present in the periphery of hepatic lobules, and veins are present in the center. It has thus been pointed out that there is a gradient of the oxygen partial pressure from the periphery to the center. […] It can be seen that the area with a short lifetime (which is blue in the color image) corresponds to the periphery of hepatic lobules, and that the area with a long lifetime (which is orange in the color image) corresponds to the area near the central vein.

[5] = tested on: kidney of a mouse; assay: Phosphorescence intensity and lifetime imaging (PLIM) of kidney of mouse after tail vein administration; type: in vivo; conditions: mouse under anesthesia, 250 nmol, excitation 488 nm

Molecule	phosphorescence intensity in imaging under oxygen partial pressure of 2.5% (intracellular oxygen responsiveness) [1]	phosphorescence intensity in HeLa cells (comparison between complexes) [1]	maximum absorption wavelength λabs [2]	maximum emission (phosphorescence) wavelength λphos [2]	molecular extinction coefficient ε [2]	phosphorescence lifetime τp [2]	phosphorescence quantum yield Φp [2]	change of phosphorescence lifetime of C6-BEDA in cells after additive [3]	change of intracellular oxygen partial pressure after additive [3]	phosphorescence lifetime imaging of liver [4]	suitability as probe for intracellular oxygen concentration ([3]; 500 nM, plate reader)	imaging of kidney [5]
CC1(C)CCN2CCC(C)(C)c3c2c1cc1[c-]c(-c2nc4ccccc4s2)c(=O)oc31.CC1(C)CCN2CCC(C)(C)c3c2c1cc1[c-]c(-c2nc4ccccc4s2)c(=O)oc31.CCCCNCCNCCCC.F[P-](F)(F)(F)(F)F.[Ir+3] [C545T-BEDA, Bis[10-(benzo[d]thiazol-2-yl)-1,1,7,7-tetramethyl-2,3,6,7-tetrahydro-1H-pyrano [2,3-f]pyrido[3,2,1-ij]quinolin-11(5H)-one-κN, κC^4]N^1,N^2-dibutylethane-1,2-diamine iridium(III) hexafluorophosphate]	remarkable increases in the phosphorescence intensity	exhibit higher phosphorescence intensities	499 nm	622 nm	90,600 dm^3mol^−1cm^−1	53.7 μs	0.40	–	–	–	–	–
CC1(C)CCN2CCC(C)(C)c3c2c1cc1[c-]c(-c2nc4ccccc4s2)c(=O)oc31.CC1(C)CCN2CCC(C)(C)c3c2c1cc1[c-]c(-c2nc4ccccc4s2)c(=O)oc31.CNCCNC.F[P-](F)(F)(F)(F)F.[Ir+3] [C545T-MEDA, Bis[10-(benzo[d]thiazol-2-yl)-1,1,7,7-tetramethyl-2,3,6,7-tetrahydro-1H-pyrano [2,3-f]pyrido[3,2,1-ij]quinolin-11(5H)-one-κN, κC^4]N^1,N^2-dimethylethane-1,2-diamine iridium(III) hexafluorophosphate]	–	–	496 nm	621 nm	77,000 dm^3mol^−1cm^−1	46.5 μs	0.36	–	–	–	–	–
N#CC(C#N)=NNc1ccc(OC(F)(F)F)cc1 [FCCP]	–	–	–	–	–	–	–	remarkably increased	rapid decrease in the oxygen partial pressure	–	–	–
Bis[3-(benzo[d]thiazol-2-yl)-7-(diethylamino)-2H-chromen-2-one-κN, κC^4]N^1,N^2-dibutylethane-1,2-diamine iridium(III) hexafluorophosphate [C6-BEDA]	remarkable increases in the phosphorescence intensity	exhibit higher phosphorescence intensities	482 nm	594 nm	106,000 dm^3mol^−1cm^−1	34.8 μs	0.65	–	–	the presence of the gradient of the phosphorescence lifetime can be seen	capable of real-time tracing of changes in the intracellular oxygen concentration	–
Bis[3-(benzo[d]thiazol-2-yl)-7-(diethylamino)-2H-chromen-2-one-κN, κC^4]N^1,N^2-dimethylethane-1,2-diamine iridium(III) hexafluorophosphate [C6-MEDA]	–	–	481 nm	593 nm	103,000 dm^3mol^−1cm^−1	38.7 μs	0.75	–	–	–	–	Renal tubular cells could be clearly imaged
Bis[3-(benzo[d]thiazol-2-yl)-7-(diethylamino)-2H-chromen-2-one-κN, κC^4]ethane-1,2-diamine iridium(III) hexafluorophosphate [C6-EDA]	–	–	473 nm	577 nm	91,700 dm^3mol^−1cm^−1	38.9 μs	0.82	–	–	–	–	–
antimycin A	–	–	–	–	–	–	–	hardly changed	slight increase in the oxygen partial pressure	–	–	–
